# From patent US20240400555A1 (Initial Therapeutics, Inc., priority 2023, published 2024)
# System: HCT-116 Firefly-luciferase reporter cells
# Assay: Cellular c-MYC Reporter Assay
# Type: cell-based
# Details: Homo sapiens; untitled table following Table 8a; HCT-116 Firefly-luciferase reporter cells, 24 h; read-out: pIC50 (converted)
# Experimental: HCT-116 Firefly-luciferase reporter cells (BPS Bioscience) were seeded in 96-well tissue-culture treated sterile plates (Greiner Bio-One) at 5e4 cells/mL in 100 μL complete growth media (McCoy's 5A+10% FBS, +1% Pen-Strep, +1% G418). Cells were incubated at 37° C. with 5% CO2 for 4-6 h then treated with 3× compound solution in 50 μL complete growth media for a final volume of 150 μL per well with 0.2% DMSO. After 24 h incubation at 37° C. with 5% CO2, plates were allowed to equilibrate to RT for 20 min then developed by addition of 100 μL ONE-Glo Luciferase detection reagent (Promega), incubated at RT for 10 min. Luminescence was recorded using a SpectraMax i3x plate reader (Molecular Devices) and analyzed using Prism GraphPad 9 software.
row,IC50 [nM],Structure (SMILES)
1,1550,"Cc1cccc2ccnc(N(C(=O)c3ccc(Nc4ncccn4)cn3)[C@@H]3CCCNC3)c12 [Example 184, (R)—N-(8-methylisoquinolin-1-yl)-N-(piperidin-3-yl)-5-(pyrimidin-2-ylamino) picolinamide]"
2,269,"Cc1cccc2ccnc(N(C(=O)c3ccc(Oc4ncccn4)cc3F)[C@@H]3CCCNC3)c12 [Example 133, 2-fluoro-N-(8-methyl-1-isoquinolyl)-N-(3-piperidyl)-4-pyrimidin-2-yloxy-benzamide]"
3,5500,"Cc1cccc2ccnc(N(C(=O)N3CCCC(C4CCC4)CC3)[C@@H]3CCCNC3)c12 (stereo partly drawn) [Example 261, 4-cyclobutyl-N-(8-methylisoquinolin-1-yl)-N—((R)-piperidin-3-yl)azepane-1-carboxamide]"
4,38,"Cc1cccc2ccnc(N(C(=O)c3ccc(-n4nnc5cccnc54)cc3F)[C@@H]3CCCNC3)c12 [Example 242, (R)-4-(3H-[1,2,3]triazolo[4,5-b]pyridin-3-yl)-2-fluoro-N-(8-methylisoquinolin-1-yl)-N-(piperidin-3-yl)benzamide]"
5,4170,"Cc1cccc2ccnc(N(C(=O)c3cccc(Cn4nccn4)c3F)[C@@H]3CCCNC3)c12 [Example 282, (R)-3-((2H-1,2,3-triazol-2-yl)methyl)-2-fluoro-N-(8-methylisoquinolin-1-yl)-N-(piperidin-3-yl)benzamide]"

# System: MV-4-11 cells
# Assay: Cell Viability Assay in MV-4-11 Cells
# Type: cell-based
# Details: Homo sapiens, MV4-11, 72 h
# Summary of the method: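 MV-4-11 cells at 7,000/well in IMDM with 10% FBS, exposed to compound for 72 h. Viability by CellTiter-Glo luminescence, normalized to DMSO as 100%, fitted with a four-parameter curve.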
row,Structure (SMILES),IC50 [nM]
1,"Cn1cc(-c2ccc(C(=O)N(c3nccc4sc(-c5cnn(CC(N)=O)c5)cc34)[C@@H]3CCCNC3)c(F)c2)nn1 [Example 489, N-[2-[1-(2-amino-2-oxo-ethyl)pyrazol-4-yl]thieno[3,2-c]pyridin-4-yl]-2-fluoro-4-(1-methyltriazol-4-yl)-N-[(3R)-3-piperidyl]benzamide]",> 10000

# Same assay, conditions: Homo sapiens, MV4-11, 72 h, MV-4-11 cells, 72 h, Cell-Titer Glo; read-out: IC50
row,IC50 [nM],Structure (SMILES)
1,140,"Cc1cc(Cl)cc2ccnc(N(C(=O)c3ccc(-c4nnn(C)c4C)cc3)[C@@H]3CCCNC3)c12 [Example 771, (R)—N-(6-chloro-8-methylisoquinolin-1-yl)-4-(1,5-dimethyl-1H-1,2,3-triazol-4-yl)-N-(piperidin-3-yl)benzamide]"
2,1500,"O=C(c1ccc(-n2nnc3cccnc32)cc1F)N(c1nccc2cccnc12)[C@@H]1CCCNC1 [Example 325, (R)-4-(3H-[1,2,3]triazolo[4,5-b]pyridin-3-yl)-2-fluoro-N-(1,7-naphthyridin-8-yl)-N-(piperidin-3-yl)benzamide]"
3,110,"COC(=O)c1cnc(Nc2ccc(C(=O)N(c3nccc4cccc(C)c34)[C@@H]3CCCNC3)c(F)c2)nc1 [Example 929, methyl (R)-2-((3-fluoro-4-((8-methylisoquinolin-1-yl)(piperidin-3-yl)carbamoyl)phenyl)amino)pyrimidine-5-carboxylate]"
4,32,"Cc1cccc2ccnc(N(C(=O)c3ccc(Nc4nccc(C5=CCC(O)CC5)n4)cc3F)[C@@H]3CCCNC3)c12 (stereo partly drawn) [Example 681, 2-fluoro-4-((4-(4-hydroxycyclohex-1-en-1-yl)pyrimidin-2-yl)amino)-N-(8-methylisoquinolin-1-yl)-N—((R)-piperidin-3-yl)benzamide]"
5,150,"Cc1nnc(-c2ccc(C(=O)N(c3nccc4cc(F)cc(C)c34)[C@@H]3CCCNC3)c(F)c2)o1 [Example 776, (R)-2-fluoro-N-(6-fluoro-8-methylisoquinolin-1-yl)-4-(5-methyl-1,3,4-oxadiazol-2-yl)-N-(piperidin-3-yl)benzamide]"
6,190,"COCc1cn(-c2ccc(C(=O)N(c3nccc4cc(Cl)cc(C)c34)[C@@H]3CCCNC3)nc2)nn1 [Example 632, (R)—N-(6-chloro-8-methylisoquinolin-1-yl)-5-(4-(methoxymethyl)-1H-1,2,3-triazol-1-yl)-N-(piperidin-3-yl)picolinamide]"
7,170,"Cc1ccc(F)c2ccnc(N(C(=O)c3ccc(Nc4ncccn4)cc3F)[C@@H]3CCCNC3)c12 [Example 661, (R)-2-fluoro-N-(5-fluoro-8-methylisoquinolin-1-yl)-N-(piperidin-3-yl)-4-(pyrimidin-2-ylamino)benzamide]"
8,310,"Cn1cc(-c2ccc(C(=O)N(c3nccc4cccc(/C=C/c5cccnc5)c34)[C@@H]3CCCNC3)cc2)nn1 [Example 349, 4-(1-methyltriazol-4-yl)-N-[(3R)-3-piperidyl]-N-[8-[(E)-2-(3-pyridyl)vinyl]-1-isoquinolyl]benzamide]"
9,15,"Cc1cccc2ccnc(N(C(=O)c3ccc(Nc4nccc(N5CCC(c6ccncc6)CC5)n4)cc3F)[C@@H]3CCCNC3)c12 [Example 962, (R)-2-fluoro-N-(8-methylisoquinolin-1-yl)-N-(piperidin-3-yl)-4-((4-(4-(pyridin-4-yl)piperidin-1-yl)pyrimidin-2-yl)amino)benzamide]"
10,80,"Cc1nnc(-c2ccc(C(=O)N(c3nccc4cc(Cl)cc(C)c34)[C@@H]3CCCNC3)cn2)s1 [Example 709, (R)—N-(6-chloro-8-methylisoquinolin-1-yl)-6-(5-methyl-1,3,4-thiadiazol-2-yl)-N-(piperidin-3-yl)nicotinamide]"
11,110,"NC(=O)Cc1cccc(-c2cc3c(N(C(=O)c4ccc(-n5nnc6cccnc65)cc4F)[C@@H]4CCCNC4)nccc3s2)c1 [Example 447, N-[2-[3-(2-amino-2-oxo-ethyl)phenyl]thieno[3,2-c]pyridin-4-yl]-2-fluoro-N-[(3R)-3-piperidyl]-4-(triazolo[4,5-b]pyridin-3-yl)benzamide]"
12,210,"Cc1cccc2ccnc(N(C(=O)c3ccc(-c4nnn(C)c4C)cc3F)[C@@H]3CCCNC3)c12 [Example 830, (R)-4-(1,5-dimethyl-1H-1,2,3-triazol-4-yl)-2-fluoro-N-(8-methylisoquinolin-1-yl)-N-(piperidin-3-yl)benzamide]"
13,140,"COCCc1nnc(-c2ccc(C(=O)N(c3nccc4scc(C)c34)[C@@H]3CCCNC3)c(F)c2)s1 [Example 634, (R)-2-fluoro-4-(5-(2-methoxyethyl)-1,3,4-thiadiazol-2-yl)-N-(3-methylthieno[3,2-c]pyridin-4-yl)-N-(piperidin-3-yl)benzamide]"
14,2000,"Cc1cccc2ccnc(N(C(=O)N3CCCC(CCC(=O)Nc4ccc5[nH]ncc5c4)C3)[C@@H]3CCCNC3)c12 (stereo partly drawn) [Example 498, 3-(3-((1H-indazol-5-yl)amino)-3-oxopropyl)-N-(8-methylisoquinolin-1-yl)-N—((R)-piperidin-3-yl)piperidine-1-carboxamide]"
15,23,"Cc1cccc2ccnc(N(C(=O)c3ccc(N4CCOCC4)cc3F)[C@@H]3CCCNC3)c12 [Example 311, (R)-2-fluoro-N-(8-methylisoquinolin-1-yl)-4-morpholino-N-(piperidin-3-yl)benzamide]"
16,860,"Cn1cc(-c2ccc(C(=O)N(c3nccc4cc(F)ccc34)[C@@H]3CCCNC3)nc2)nn1 [Example 803, (R)—N-(6-fluoroisoquinolin-1-yl)-5-(1-methyl-1H-1,2,3-triazol-4-yl)-N-(piperidin-3-yl)picolinamide]"
17,61,"COCc1c(-c2ccc(C(=O)N(c3nccc4scc(C)c34)[C@@H]3CCCNC3)c(F)c2)nnn1C [Example 851, 2-fluoro-4-[5-(methoxymethyl)-1-methyl-triazol-4-yl]-N-(3-methylthieno[3,2-c]pyridin-4-yl)-N-[(3R)-3-piperidyl]benzamide]"
